± gives the standard deviation of the averaged measurements.
How the values were obtained:
Assay in all cases: level (log10 ratio to DMSO vehicle control); higher = higher biomarker level / cell amount than vehicle control
Conditions in all cases: in DMSO
[1] = compound: O=C(O)C(F)(F)C(F)(F)C(F)(F)C(F)(F)C(F)(F)C(F)(F)C(F)(F)F [Perfluorooctanoic acid]
Protocol: (§1)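 BioMAP Diversity Plus panel of 12 human primary cell co-culture systems (3C, 4H, LPS, SAg, BT, BF4T, BE3C, CASM3C, HDF3CGF, KF3CT, MyoF, Mphg). Compounds were added 1 h before stimulation and left for 24 h (MyoF 48 h; BT 72 h for soluble read-outs or 6 d for IgG). Biomarkers were read by ELISA, cytotoxicity by SRB, PBMC viability and proliferation by Alamar Blue. Each well value was divided by the mean of 8 DMSO control wells on the same plate and log10 transformed; duplicate blinded samples were tested at 4 concentrations.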

[2] = compound: O=C(O)C(F)(F)C(F)(F)C(=O)O [Tetrafluorosuccinic acid]
Protocol: as §1

[3] = compound: FC(F)(F)COC(OCC(F)(F)F)OCC(F)(F)F [tris(Trifluoroethoxy)methane]
Protocol: as §1

[4] = compound: Cc1ccc(S(=O)(=O)OCC(F)(F)C(F)(F)C(F)(F)C(F)(F)C(F)(F)C(F)F)cc1 [1H,1H,7H-Perfluoroheptyl 4-methylbenzenesulfonate]
Protocol: as §1

[5] = compound: OC(C(F)(F)F)(C(F)(F)F)C(O)(C(F)(F)F)C(F)(F)F [Perfluoropinacol]
Protocol: as §1

[6] = compound: CN(Cc1cnc2nc(N)nc(N)c2n1)c1ccc(C(=O)N[C@@H](CCC(=O)O)C(=O)O)cc1 [Methotrexate]
Protocol: as §1

Test System	level (log10) ([1]; 6700 nM)	level (log10) ([1]; 20000 nM)	level (log10) ([1]; 60000 nM)	level (log10) ([2]; 6700 nM)	level (log10) ([2]; 20000 nM)	level (log10) ([2]; 60000 nM)	level (log10) ([3]; 6700 nM)	level (log10) ([3]; 20000 nM)	level (log10) ([3]; 60000 nM)	level (log10) ([4]; 6700 nM)	level (log10) ([4]; 20000 nM)	level (log10) ([4]; 60000 nM)	level (log10) ([5]; 6700 nM)	level (log10) ([5]; 20000 nM)	level (log10) ([6]; 1500 nM)	level (log10) ([6]; 4400 nM)	level (log10) ([6]; 13000 nM)	level (log10) ([6]; 40000 nM)
3C:CCL2/MCP-1	0.0055 ± 0.016	0.008 ± 0.0071	0.04 ± 0.034	-0.0065 ± 0.016	-0.006 ± 0.0028	0.0005 ± 0.0064	-0.0065 ± 0.019	-0.0115 ± 0.022	0.021 ± 0.048	-0.011 ± 0.0028	-0.0075 ± 0.0021	-0.0475 ± 0.011	0.092 ± 0.013	0.0445 ± 0.012	0.0505 ± 0.0064	-0.013 ± 0.027	0.0065 ± 0.0078	0.028 ± 0.028
MyoF:bFGF	-0.023 ± 0.0057	-0.0275 ± 0.0035	-0.0085 ± 0.03	0.0005 ± 0.0021	0.0095 ± 0.0078	-0.0045 ± 0.029	-0.004 ± 0.0042	-0.0155 ± 0.011	-0.006 ± 0.0028	-0.0005 ± 0.0021	0.012 ± 0.0071	0.009 ± 0.017	-0.0075 ± 0.012	-0.0225 ± 0.0092	-0.0095 ± 0.015	-0.0045 ± 0.021	0.009 ± 0.0071	-0.0095 ± 0.0035
MyoF:Collagen IV	0.011 ± 0.014	0.051 ± 0.033	0.214 ± 0.03	0.008	0.003 ± 0.0099	0.0115 ± 0.015	-0.026 ± 0.0042	-0.027 ± 0.02	-0.0075 ± 0.03	0.0145 ± 0.022	0.0265 ± 0.046	0.0665 ± 0.077	0.0385 ± 0.005	0.165 ± 0.0028	-0.0195 ± 0.025	0.004 ± 0.033	0.007 ± 0.061	-0.014 ± 0.016
lMphg:CCL3/MIP-1alpha	0.039 ± 0.033	0.0295 ± 0.066	-0.0365 ± 0.067	-0.0145 ± 0.025	-0.0145 ± 0.00071	-0.001 ± 0.023	-0.03 ± 0.021	-0.035 ± 0.024	-0.0245 ± 0.018	-0.007 ± 0.0014	0.0145 ± 0.0021	0.0465 ± 0.033	0.116 ± 0.047	0.116 ± 0.062	-0.0375 ± 0.016	-0.0305 ± 0.00071	0.0035 ± 0.012	0.029 ± 0.027
CASM3C:CD141/Thrombomodulin	0.0125 ± 0.0092	0.007 ± 0.016	-0.0115 ± 0.0064	-0.0015 ± 0.012	0.013 ± 0.023	-0.0265 ± 0.025	-0.0075 ± 0.0092	-0.006 ± 0.025	-0.0125 ± 0.019	-0.002 ± 0.0014	0.032 ± 0.0085	0.067 ± 0.041	-0.0085 ± 0.021	0.0575 ± 0.0035	0.0595 ± 0.005	-0.008 ± 0.093	0.0155 ± 0.098	0.044 ± 0.021
CASM3C:Proliferation	-0.023 ± 0.051	-0.0165 ± 0.032	0.0105 ± 0.0064	0.001 ± 0.0057	-0.053 ± 0.016	-0.0085 ± 0.06	-0.033 ± 0.021	-0.042 ± 0.0014	0.021 ± 0.027	-0.009 ± 0.031	0.035 ± 0.064	-0.0075 ± 0.025	-0.02 ± 0.013	-0.122 ± 0.035	-0.011 ± 0.096	0.0805 ± 0.025	0.0585 ± 0.0021	0.041 ± 0.014
MyoF:Collagen I	-0.0065 ± 0.0092	-0.0035 ± 0.036	-0.034 ± 0.017	0.0045 ± 0.0021	0.007 ± 0.0014	0.0005 ± 0.012	-0.006 ± 0.0085	-0.013 ± 0.017	-0.01 ± 0.0014	-0.001 ± 0.0028	0.019 ± 0.0099	0.001 ± 0.016	0.044	-0.006 ± 0.0099	-0.0115 ± 0.049	-0.01 ± 0.059	0.01 ± 0.035	0.004 ± 0.038
KF3CT:CXCL8/IL-8	0.015 ± 0.0057	0.0225 ± 0.0064	-0.011 ± 0.0099	-0.029 ± 0.011	-0.031 ± 0.0042	-0.0175 ± 0.026	0.002 ± 0.011	0.007 ± 0.013	0.012 ± 0.0014	-0.005 ± 0.0028	-0.103 ± 0.013	-0.04 ± 0.014	-0.018 ± 0.011	-0.005 ± 0.0042	0.002 ± 0.017	0 ± 0.021	-0.0085 ± 0.023	0.014 ± 0.011
BE3C:MMP-9	-0.0185 ± 0.012	0.015 ± 0.0028	0.079 ± 0.047	-0.014 ± 0.027	-0.0035 ± 0.011	-0.005 ± 0.0028	-0.005 ± 0.0028	-0.004 ± 0.0014	0.0045 ± 0.019	0.012 ± 0.027	-0.0165 ± 0.021	-0.003 ± 0.035	-0.011 ± 0.0014	-0.04 ± 0.0028	0.014 ± 0.021	-0.0025 ± 0.011	0.0045 ± 0.079	0.0085 ± 0.015
lMphg:CD106/VCAM-1	0.0065 ± 0.0078	0.0065 ± 0.011	0.0025 ± 0.0092	-0.017 ± 0.0028	0.0085 ± 0.0021	0.018 ± 0.03	0.0065 ± 0.0035	0.023 ± 0.0099	-0.0145 ± 0.0092	-0.0105 ± 0.029	0.0045 ± 0.0021	0 ± 0.0071	0.0045 ± 0.0064	-0.077 ± 0.023	-0.001 ± 0.025	-0.016 ± 0.021	-0.002 ± 0.0057	-0.007 ± 0.021
MyoF:TIMP-1	-0.0245 ± 0.005	0.0185 ± 0.0078	0.089 ± 0.013	-0.0045 ± 0.022	-0.0215 ± 0.04	-0.026 ± 0.069	-0.0325 ± 0.032	-0.05 ± 0.055	-0.076 ± 0.0028	-0.0255 ± 0.044	-0.0575 ± 0.069	-0.0375 ± 0.07	0.006 ± 0.016	-0.021 ± 0.0028	-0.0025 ± 0.0021	-0.025 ± 0.027	-0.012 ± 0.033	-0.0285 ± 0.084
CASM3C:LDLR	-0.011	0.001 ± 0.013	0.004 ± 0.014	0.0005 ± 0.0035	-0.02 ± 0.014	0.0015 ± 0.019	-0.0325 ± 0.022	-0.0055 ± 0.015	0.008 ± 0.013	-0.0095 ± 0.0092	0.007 ± 0.0099	0.0285 ± 0.022	-0.067 ± 0.0014	-0.0505 ± 0.018	0.011 ± 0.0042	0.0465 ± 0.042	0.0205 ± 0.022	0.0455 ± 0.066
3C:CD106/VCAM-1	-0.0435 ± 0.053	-0.0325 ± 0.05	-0.013 ± 0.067	-0.015 ± 0.014	-0.015 ± 0.011	-0.0105 ± 0.018	-0.002 ± 0.016	-0.0045 ± 0.019	0.0095 ± 0.0078	-0.0205 ± 0.0064	-0.0085 ± 0.0064	-0.037 ± 0.025	-0.006 ± 0.02	-0.0385 ± 0.018	-0.0115 ± 0.044	-0.005 ± 0.021	0.0055 ± 0.035	-0.0135 ± 0.026
lMphg:CCL2/MCP-1	0.018 ± 0.0071	0.036 ± 0.0028	0.025 ± 0.025	-0.03 ± 0.016	-0.0195 ± 0.012	0.0005 ± 0.042	-0.01 ± 0.023	0.0005 ± 0.011	0.018 ± 0.035	-0.033 ± 0.0014	-0.0345 ± 0.015	-0.0055 ± 0.026	0.0265 ± 0.028	-0.148 ± 0.0014	0.0115 ± 0.03	0.008 ± 0.035	-0.0105 ± 0.033	-0.0055 ± 0.021
lMphg:IL-1alpha	-0.0105 ± 0.0021	-0.0085 ± 0.026	0.0545 ± 0.026	-0.016 ± 0.0057	-0.015 ± 0.025	-0.0035 ± 0.03	-0.031 ± 0.014	-0.03 ± 0.0028	-0.006 ± 0.03	-0.034 ± 0.017	-0.036 ± 0.042	0.033 ± 0.099	0.103 ± 0.021	0.149 ± 0.067	-0.0335 ± 0.097	-0.0545 ± 0.083	-0.041 ± 0.057	-0.028 ± 0.047
CASM3C:Serum Amyloid A	-0.002 ± 0.013	0.006 ± 0.051	0.022 ± 0.038	0.011 ± 0.011	0.017 ± 0.018	0.025 ± 0.037	-0.028 ± 0.027	-0.026 ± 0.04	0.0045 ± 0.044	-0.0445 ± 0.021	-0.0515 ± 0.0078	0.0015 ± 0.06	0.0545 ± 0.0078	0.0595 ± 0.015	-0.0405 ± 0.015	-0.0145 ± 0.028	0.002 ± 0.045	-0.044 ± 0.068
